Like-named read-outs stand apart in the source and are kept apart here.
Experiments:
[1] = test system: livers from treated male Sprague-Dawley rats
Procedure: Briefly, in vivo short-term repeat dose rat studies were conducted on over 580 test compounds, including marketed and withdrawn drugs, environmental and industrial toxicants, and standard biochemical reagents. Rats (three per group) were dosed daily at either a low or high dose. […] Animals were necropsied on days 0.25, 1, 3, and 5 or 7. Up to 13 tissues (e.g., liver, kidney, heart, bone marrow, blood, spleen, brain, intestine, glandular and nonglandular stomach, lung, muscle, and gonads) were collected for histopathological evaluation and microarray expression profiling on the Amersham CodeLink™ RU1 platform (also referred to herein as “CodeLink Uniset™ Rat 1 Bioarray”). In addition, a clinical pathology panel consisting of 37 clinical chemistry and hematology parameters was generated from blood samples collected on days 3 and 5.
The remaining 21 NGTC chemicals and 26 NC chemicals were reserved for independent validation of the signature. Each chemical was evaluated in a short term repeat dose in vivo study in male Sprague-Dawley rats (n=3/group). The livers from treated and control rats were collected after 1, 3 and 5 days of dosing and RNA was extracted for gene expression profiling. Gene expression changes in treated animals were compared to suitably matched controls and represented as average log10 ratios for each treatment group. Since the development of tumors is a long term multi-step process, the 100 training set chemicals were profiled at the latest time point in order to capture gene expression changes that were likely to be reflective of repeat dose treatment effects that contribute to carcinogenicity and not reflective of an initial stimulus following a single dose that may be transient in nature.
Male Sprague-Dawley (Crl:CD®(SD)(IGS)BR) rats (weight matched, 7 to 8 weeks of age and averaging 200 to 250 g) were purchased from Charles River Laboratories (Portage, Mich.) and housed individually in hanging, stainless steel, wire-bottom cages in a temperature (66-77° F.), light (12-hour dark/light cycle) and humidity (30-70%) controlled room. […] Housing and treatment of the animals were in accordance with regulations outlined in the USDA Animal Welfare Act (9 CFR Parts 1, 2 and 3). Animals were assigned to groups such that mean body weights were within 10% of the mean vehicle control group. Test articles were administered either orally (10 ml of corn oil/kg body weight) or by intra-peritoneal injection (5 ml of saline/kg body weight), as indicated. Animals were dosed once daily starting on day 0, and necropsied 24 hrs after the last dose, as indicated. An equivalent number of time- and vehicle-matched control rats were treated concurrently.
Briefly, liver samples from 3 rats were chosen from each treatment and control group for gene expression analysis on the Codelink Uniset™ Rat 1 Bioarray (GE Healthcare Bio-Sciences Corp., Piscataway, N.J.). A complete list of probes on the array is provided on the Amersham Biosciences web site (www.amershambiosciences.com). Log transformed signal data for all probes were array-wise normalized used Array Qualifier (Novation Biosciences, Palo Alto, Calif.), a non-linear centralization normalization procedure adapted for the CodeLink microarray platform. Log10 ratios for each experimental group are computed as the difference between the average of the logs of the normalized experimental signals and the average of the logs of the normalized control signals for each gene.
where S is the scalar product and b is the bias term. Evaluation of S for a test experiment across the n genes in the signature determines what side of the hyperplane in m dimensional space the test experiment lies, and thus the result of the classification. Experiments with scalar products greater than 0 are considered positive for non-genotoxic hepatocarcinogenicity.

liver of rats = settings: cited from earlier work
[2] = male, Sprague-Dawley, rat, in vivo
[3] = test chemicals, literature class NGTC or NC

SMILES: NN [hydrazine, reference compound]
- Day 1 (scalar product) ([1]; male, rat, in vivo): −0.10
- Day 3 (scalar product) ([1]; male, rat, in vivo): −1.31
- Day 5 (scalar product) ([1]; male, rat, in vivo): −1.48
- Max (maximum scalar product observed over the multiple time points) ([1]; male, rat, in vivo): −0.10
- signature prediction for non-genotoxic hepatocarcinogenicity ([1]; rat, in vivo): negative
- Class (liver of rats; rat, in vivo): GTC

SMILES: CC(=O)S[C@@H]1CC2=CC(=O)CC[C@]2(C)[C@H]2CC[C@@]3(C)[C@@H](CC[C@@]34CCC(=O)O4)[C@H]12 [SPIRONOLACTONE]
- Max (maximum scalar product observed over the multiple time points) [1, 2]: 0.37
- Class (liver of rats; [3]): NGTC

SMILES: COC(=O)Nc1nc2ccc([S+]([O-])c3ccccc3)cc2[nH]1 (stereo not drawn) [OXFENDAZOLE]
- Max (maximum scalar product observed over the multiple time points) [1, 2]: 0.32
- Class (liver of rats; [3]): NGTC

SMILES: COC(=O)Nc1nc2ccc(Sc3ccccc3)cc2[nH]1 [FENBENDAZOLE]
- Max (maximum scalar product observed over the multiple time points) ([1]; maximum of days 1, 3, 5, greater than zero = classified non-genotoxic hepatocarcinogen): 0.17
- Class (liver of rats; [3]): NGTC
